In patent US9718792B2, “Isoxazoline hydroxamic acid derivatives as LpxC inhibitors” (priority 2014, dated 2017) one finds MIC and IC50 data, which are given here for 23 compounds.

The MIC is the least concentration at which growth counts as inhibited. By IC50 is commonly meant the midpoint of a concentration-inhibition curve.

The structures appear in SMILES notation. ≈ marks a conversion by molar mass, not a printed value. Like-named read-outs stand apart in the source and are kept apart here.

The test system of experiment [1] is P. aeruginosa PAO1. The experiment in a line: Susceptibility Testing (MIC, broth microdilution). As to conditions: Pseudomonas aeruginosa, PAO1, 20 h, P. aeruginosa PAO1, broth microdilution, 20 hours; read-out: PAO1 MIC. Format: cell-based, Pseudomonas aeruginosa. The essentials:
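Broth microdilution per CLSI in cation-adjusted Mueller-Hinton broth, inoculum ~5×10^5 CFU/mL, two-fold compound dilutions (1% DMSO final). Plates incubated 20 h in ambient air at 35° C. MIC is the lowest concentration preventing visible growth, confirmed by OD 600 nm reading.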
(Broth dilution looks for growth in wells or tubes with falling amounts of substance.)

The target in experiment [2] is P. aeruginosa LpxC (Pseudomonas aeruginosa (strain ATCC 15692 / DSM 22644 / CIP 104116 / JCM 14847 / LMG 12228 / 1C / PRS 101 / PAO1), UniProt P47205). The experiment in a line: P. aeruginosa LpxC Inhibition Assay. Particulars: 2 μM substrate, LC-MS/MS. Type of experiment: biochemical. In short, it runs like this:
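Compounds pre-incubated 30 min at room temperature with 1 nM LpxC, then 2 μM UDP-3-O-(R-3-hydroxydecanoyl)-GlcNAc added; 20 min reaction in 50 mM sodium phosphate pH 7.5, 0.005% Triton X-100, quenched with HOAc. Product quantified by LC-MS/MS against calibration curve; IC50 from four-parameter logistic fit.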

The mark [3] stands for this setting: 1 nM P. aeruginosa LpxC, read-out: PA LpxC IC50.

Turning to `C[C@@H](O)[C@@H](O)Cc1ccc(-c2ccc(C3=NO[C@@H](C[C@](C)(C(=O)NO)S(C)(=O)=O)C3)cc2)cc1` [Compound 93, (R)-3-((R)-3-(4′-((2S,3R)-2,3-dihydroxybutyl)-[1,1′-biphenyl]-4-yl)-4,5-dihydroisoxazol-5-yl)-N-hydroxy-2-methyl-2-(methylsulfonyl) propanamide], in experiment [1], the MIC came to 2 µg/mL (≈ 4.08 µM). Also, the IC50 in experiment [2] (setting [3]) was less than 0.5 nM.

Regarding `C[C@@](C[C@H]1CC(c2ccc(-c3ccc([C@H](O)CO)cc3)cc2)=NO1)(C(=O)NO)S(C)(=O)=O` [Compound 94, (R)-3-((R)-3-(4′-((S)-1,2-dihydroxyethyl)-[1,1′-biphenyl]-4-yl)-4,5-dihydroisoxazol-5-yl)-N-hydroxy-2-methyl-2-(methylsulfonyl)propanamide], in experiment [1], the MIC was 0.25 µg/mL (≈ 0.541 µM). For the same compound, the IC50 in experiment [2] (setting [3]) is less than 0.5 nM.

Consider `C[C@@](C[C@H]1CC(c2ccc(-c3ccc([C@@H](O)CO)cc3)cc2)=NO1)(C(=O)NO)S(C)(=O)=O` [Compound 95, (R)-3-((R)-3-(4′-((R)-1,2-dihydroxyethyl)-[1,1′-biphenyl]-4-yl)-4,5-dihydroisoxazol-5-yl)-N-hydroxy-2-methyl-2-(methylsulfonyl)propanamide], for which the minimum inhibitory concentration (MIC) in experiment [1] is 0.25 µg/mL (≈ 0.541 µM). Moreover, in experiment [2] (setting [3]), the IC50 was less than 0.1 nM.

With `C[C@@](C[C@H]1CC(c2ccc(-c3ccc(C(O)CCO)cc3)cc2)=NO1)(C(=O)NO)S(C)(=O)=O` (stereo partly drawn) [Compound 96, (2R)-3-((5R)-3-(4′-(1,3-dihydroxypropyl)-[1,1′-biphenyl]-4-yl)-4,5-dihydroisoxazol-5-yl)-N-hydroxy-2-methyl-2-(methylsulfonyl)propanamide], the minimum inhibitory concentration (MIC) in experiment [1] was determined as 0.5 µg/mL (≈ 1.05 µM). The half-maximal inhibitory concentration (IC50) in experiment [2] (setting [3]) was less than 0.5 nM.

As to `C[C@@](C[C@H]1CC(c2ccc(C#CC3CCOCC3)cc2)=NO1)(C(=O)NO)S(C)(=O)=O` [Compound 98, (R)—N-hydroxy-2-methyl-2-(methylsulfonyl)-3-((R)-3-(4-((tetrahydro-2H-pyran-4-yl)ethynyl)phenyl)-4,5-dihydroisoxazol-5-yl)propanamide], in experiment [1], the MIC is 2 µg/mL (≈ 4.6 µM). The IC50 in experiment [2] (setting [3]) turned out to be 0.6 nM.

With `C[C@@](C[C@H]1CC(c2ccc(-c3c(F)cncc3F)cc2)=NO1)(C(=O)NO)S(C)(=O)=O` [Compound 100], in experiment [1], the MIC amounted to 0.25 µg/mL (≈ 0.569 µM). For the same compound, the 50% inhibitory concentration (IC50) in experiment [2] (setting [3]) was less than 0.5 nM.

As for `CCc1ccc(C2=NO[C@@H](C[C@](C)(C(=O)NO)S(C)(=O)=O)C2)cc1F` [Compound 101, (R)-3-((R)-3-(4-ethyl-3-fluorophenyl)-4,5-dihydroisoxazol-5-yl)-N-hydroxy-2-methyl-2-(methylsulfonyl)propanamide], the MIC in experiment [1] came out at 0.35 µg/mL (≈ 0.94 µM). Besides, the IC50 in experiment [2] (setting [3]) is less than 0.5 nM.

Consider `C[C@@](C[C@H]1CC(c2ccc(-c3ccc(CCO)cc3)c(F)c2)=NO1)(C(=O)NO)S(C)(=O)=O` [Compound 102, (R)-3-((R)-3-(2-fluoro-4′-(2-hydroxyethyl)-[1,1′-biphenyl]-4-yl)-4,5-dihydroisoxazol-5-yl)-N-hydroxy-2-methyl-2-(methylsulfonyl)], for which the minimum inhibitory concentration (MIC) in experiment [1] came to 0.18 µg/mL (≈ 0.388 µM). Also, in experiment [2] (setting [3]), the IC50 is less than 0.5 nM.

With `C[C@@](C[C@H]1CC(c2ccc(-c3ccc(CO)cc3)c(F)c2)=NO1)(C(=O)NO)S(C)(=O)=O` [Compound 103, (R)-3-((R)-3-(2-fluoro-4′-(hydroxymethyl)-[1,1′-biphenyl]-4-yl)-4,5-dihydroisoxazol-5-yl)-N-hydroxy-2-methyl-2-(methylsulfonyl)propanamide], the minimum inhibitory concentration (MIC) in experiment [1] is 0.18 µg/mL (≈ 0.4 µM). The IC50 in experiment [2] (setting [3]) is 0.6 nM.

On to `C[C@@](C[C@H]1CC(c2ccc(-c3ccc(CC#N)cc3)c(F)c2)=NO1)(C(=O)NO)S(C)(=O)=O` [Compound 104, (R)-3-((R)-3-(4′-(cyanomethyl)-2-fluoro-[1,1′-biphenyl]-4-yl)-4,5-dihydroisoxazol-5-yl)-N-hydroxy-2-methyl-2-(methylsulfonyl)propanamide], for which the minimal inhibitory concentration (MIC) in experiment [1] is 0.125 µg/mL (≈ 0.272 µM). Moreover, the concentration for half-maximal inhibition (IC50) in experiment [2] (setting [3]) is 0.5 nM.

Take `Cn1ccc(-c2ccc(C3=NO[C@@H](C[C@](C)(C(=O)NO)S(C)(=O)=O)C3)cc2F)cc1=O` [Compound 108, (R)-3-((R)-3-(3-fluoro-4-(1-methyl-2-oxo-1,2-dihydropyridin-4-yl)phenyl)-4,5-dihydroisoxazol-5-yl)-N-hydroxy-2-methyl-2-(methylsulfonyl)propanamide]: the MIC in experiment [1] stood at 8 µg/mL (≈ 17.7 µM). Further, the 50% inhibitory concentration (IC50) in experiment [2] (PA LpxC IC50, 1 nM P. aeruginosa LpxC) was found to be 2 nM.

Consider `CC(C)(O)c1ccc(-c2ccc(C3=NO[C@@H](C[C@](C)(C(=O)NO)S(C)(=O)=O)C3)cc2F)cc1` [Compound 110, (R)-3-((R)-3-(2-fluoro-4′-(2-hydroxypropan-2-yl)-[1,1′-biphenyl]-4-yl)-4,5-dihydroisoxazol-5-yl)-N-hydroxy-2-methyl-2-(methylsulfonyl)propanamide], for which the MIC in experiment [1] amounted to 0.5 µg/mL (≈ 1.04 µM). For the same compound, the IC50 in experiment [2] (setting [3]) is less than 0.5 nM.

Consider `C[C@@](C[C@H]1CC(c2ccc(-c3ccncc3C(F)(F)F)cc2)=NO1)(C(=O)NO)S(C)(=O)=O` [Compound 111, (R)—N-hydroxy-2-methyl-2-(methylsulfonyl)-3-((R)-3-(4-(3-(trifluoromethyl)pyridin-4-yl)phenyl)-4,5-dihydroisoxazol-5-yl)propanamide], for which the MIC in experiment [1] is 1 µg/mL (≈ 2.12 µM). Moreover, the IC50 in experiment [2] (setting [3]) is less than 0.5 nM.

As to `CC(C)c1cc(-c2ccc(C3=NO[C@@H](C[C@](C)(C(=O)NO)S(C)(=O)=O)C3)cc2F)ccn1` [Compound 112, (R)-3-((R)-3-(3-fluoro-4-(2-isopropylpyridin-4-yl)phenyl)-4,5-dihydroisoxazol-5-yl)-N-hydroxy-2-methyl-2-(methylsulfonyl)propanamide], the minimum inhibitory concentration (MIC) in experiment [1] is 1 µg/mL (≈ 2.16 µM). Besides, in experiment [2] (setting [3]), the concentration for half-maximal inhibition (IC50) was less than 0.5 nM.

With `COc1ccc(-c2ccc(C3=NO[C@@H](C[C@](C)(C(=O)NO)S(C)(=O)=O)C3)cc2F)c(C)c1` [Compound 113, (R)-3-((R)-3-(2-fluoro-4′-methoxy-2′-methyl-[1,1′-biphenyl]-4-yl)-4,5-dihydroisoxazol-5-yl)-N-hydroxy-2-methyl-2-(methylsulfonyl)propanamide], the minimum inhibitory concentration (MIC) in experiment [1] is 0.71 µg/mL (≈ 1.53 µM). In addition, in experiment [2] (setting [3]), the IC50 was less than 0.5 nM.

With `C[C@@](C[C@H]1CC(c2ccc(-c3ccc(-c4nn[nH]n4)cc3)c(F)c2)=NO1)(C(=O)NO)S(C)(=O)=O` [Compound 114, (R)-3-((R)-3-(2-fluoro-4′-(2H-tetrazol-5-yl)-[1,1′-biphenyl]-4-yl)-4,5-dihydroisoxazol-5-yl)-N-hydroxy-2-methyl-2-(methylsulfonyl)propanamide], the MIC in experiment [1] is 32 µg/mL (≈ 65.5 µM). In addition, in experiment [2] (setting [3]), the 50% inhibitory concentration (IC50) was less than 0.5 nM.

`C[C@@H](O)Cc1ccc(-c2ccc(C3=NO[C@@H](C[C@](C)(C(=O)NO)S(C)(=O)=O)C3)cc2F)c(F)c1` [Compound 115, (R)-3-((R)-3-(2,2′-difluoro-4′-((R)-2-hydroxypropyl)-[1,1′-biphenyl]-4-yl)-4,5-dihydroisoxazol-5-yl)-N-hydroxy-2-methyl-2-(methylsulfonyl)propanamide]: the MIC in experiment [1] was determined as 1 µg/mL (≈ 2.01 µM). Also, in experiment [2] (setting [3]), the IC50 was less than 0.5 nM.

`C[C@@H](O)Cc1cc(F)c(-c2ccc(C3=NO[C@@H](C[C@](C)(C(=O)NO)S(C)(=O)=O)C3)cc2F)c(F)c1` [Compound 116, (R)—N-hydroxy-2-methyl-2-(methylsulfonyl)-3-((R)-3-(2,2′,6′-trifluoro-4′-((R)-2-hydroxypropyl)-[1,1′-biphenyl]-4-yl)-4,5-dihydroisoxazol-5-yl) propanamide]: in experiment [1], the MIC amounted to 0.5 µg/mL (≈ 0.972 µM). The IC50 in experiment [2] (setting [3]) is less than 0.5 nM.

`C[C@@](C[C@H]1CC(c2ccc(-c3ccncc3F)c(F)c2)=NO1)(C(=O)NO)S(C)(=O)=O` [Compound 117, (R)-3-((R)-3-(3-fluoro-4-(3-fluoropyridin-4-yl)phenyl)-4,5-dihydroisoxazol-5-yl)-N-hydroxy-2-methyl-2-(methylsulfonyl)propanamide]: the MIC in experiment [1] amounted to 0.35 µg/mL (≈ 0.796 µM). Further, the 50% inhibitory concentration (IC50) in experiment [2] (setting [3]) was less than 0.5 nM.

For `Cc1cc(-c2ccc(C3=NO[C@@H](C[C@](C)(C(=O)NO)S(C)(=O)=O)C3)cc2F)cc(C)n1` [Compound 118, (R)-3-((R)-3-(4-(2,6-dimethylpyridin-4-yl)-3-fluorophenyl)-4,5-dihydroisoxazol-5-yl)-N-hydroxy-2-methyl-2-(methylsulfonyl)propanamide], in experiment [1], the MIC was 4 µg/mL (≈ 8.9 µM). Besides, in experiment [2] (setting [3]), the IC50 was 4 nM.

In the case of `C[C@@](C[C@H]1CC(c2ccc(-c3ccncc3F)cc2F)=NO1)(C(=O)NO)S(C)(=O)=O` [Compound 119, (R)-3-((R)-3-(2-fluoro-4-(3-fluoropyridin-4-yl)phenyl)-4,5-dihydroisoxazol-5-yl)-N-hydroxy-2-methyl-2-(methylsulfonyl)propanamide], the minimum inhibitory concentration (MIC) in experiment [1] was found to be 0.71 µg/mL (≈ 1.62 µM). In experiment [2] (setting [3]), the IC50 was less than 0.5 nM.

For the compound `CCc1ccc(C2=NO[C@@H](C[C@](C)(C(=O)NO)S(C)(=O)=O)C2)c(F)c1` [Compound 120, (R)-3-((R)-3-(4-ethyl-2-fluorophenyl)-4,5-dihydroisoxazol-5-yl)-N-hydroxy-2-methyl-2-(methylsulfonyl)propanamide], the MIC in experiment [1] came to 0.5 µg/mL (≈ 1.34 µM). Further, the 50% inhibitory concentration (IC50) in experiment [2] (setting [3]) worked out at 0.6 nM.

Take `Cc1cc(C2=NO[C@@H](C[C@](C)(C(=O)NO)S(C)(=O)=O)C2)ccc1-c1ccc(C[C@@H](C)O)cc1` [Compound 121, (R)—N-hydroxy-3-((R)-3-(4′-((R)-2-hydroxypropyl)-2-methyl-[1,1′-biphenyl]-4-yl)-4,5-dihydroisoxazol-5-yl)-2-methyl-2-(methylsulfonyl)propanamide]: in experiment [1], the minimal inhibitory concentration (MIC) turned out to be 0.5 µg/mL (≈ 1.05 µM). Further, in experiment [2] (setting [3]), the 50% inhibitory concentration (IC50) was less than 0.5 nM.
